According to EP0268267A2, “Guanidinomethylbenzoic acid derivatives, compositions containing the same, processes for preparing the same, and the use of the same in the manufacture of medicaments of therapeutic value” (NIPPON HYPOX LABORATORIES INCORPORATED, priority 1986, dated 1988):
Structures can show the parent of a compound that is named as a salt.

What was measured:
[1] = system: Stress Induced Ulcer; assay: Effect on stress induced ulcer (water-immersion restraint stress, method of Takagi et al.); assay type: in vivo, Male rats of Sprague Dawley (SD) strain; settings: oral, 100 mg/kg in 1% CMC, given 15 min before 18 h water immersion at 24°C; for Ulcer inhibition rate (%): relative to group without test compound; for Ulcer index (mm): total major axis of ulcers per animal, control 94.4 ± 25.1
Description: Test Method 1 (Effect on Stress Induced Ulcer) The method of Takagi et al. (Jap. J. Pharmacol., 18, 9 ([…])) was followed. Male rats of Sprague Dawley (SD) strain each weighing from 180 to 200 g (8 weeks old and 6 to 8 rats in one group) were fasted for 24 hours, followed by oral administration of the above test compounds which had been suspended in 1% CMC aqueous solution. Fifteen minutes later, the animals were placed in a stress cage which was then immersed in a water bath at 24°C at the depth of the […] of the animals. After being immersed for 18 hours, the animals were sacrificed under etherization to remove the stomachs. Each of the stomachs was injected with 12 ml of 1% formaldehyde solution and then immersed in a 1% formaldehyde solution for 15 minutes. The stomach was incised along its greater curvature and examined for the gastric lesions under a stereomicroscope for the major axis (mm) of each ulcer that had developed on the gastric mucous membrane. The total major axis (mm) per animal was taken as the ulcer index of the animal. The ulcer inhibition rate was calculated from the following equation. The ED50 value was obtained from the dose-ulcer inhibition rate curve. Ulcer inhibition rate (%) = (1 - ? ) x 100 (wherein l is the ulcer index of a group without the test compounds administered, and m is the ulcer index of a group having such compounds administered).

[2] = system: Male mice of ddY strain; assay: Acute toxicity - minimum lethal dose (MLD); assay type: in vivo; settings: oral administration in 1% CMC, fasted overnight, observation over 7 days
Excerpt: Test Method 2 (Acute Toxicity - Minimum Lethal Dose (MLD))
Male mice of ddY strain each weighing from 20 to 22 g (4 weeks old and 5 mice in one group) were fasted overnight, followed by oral administration of the test compounds which had been suspended in 1% CMC aqueous solution. Observation was made over 7 days to determine the minimum lethal dose (MLD).

## N=C(N)NC[C@H]1CC[C@H](C(=O)Nc2ccccc2)CC1 [E, N-(phenyl)-trans-4-guanidinomethyl-cyclohexanecarboximide hydrochloride, reference compound]
[1]
  Ulcer inhibition rate (%): 35.0%
  Ulcer index (mm): 61.4 ± 14.0 mm
[2]
  minimum lethal dose (MLD): ≤ 1,000 mg/kg

## Cl.N=C(N)NCc1ccc(C(=O)Nc2ccc(Cl)cc2)cc1 [B, N-(4ʹ-chlorophenyl)-4-guanidinomethylbenzamide hydrochloride]
[1]
  Ulcer inhibition rate (%): 80.5%
  Ulcer index (mm): 18.4 ± 8.8 mm

## CCOC(=O)c1ccccc1NC(=O)c1ccc(CNC(=N)N)cc1.Cl [C, N-(2ʹ-ethoxycarbonylphenyl)-4-guanidinomethylbenzamide hydrochloride]
[1]
  Ulcer inhibition rate (%): 84.1%
  Ulcer index (mm): 15.0 ± 14.7 mm

## Cc1ccc(NC(=O)c2ccc(CNC(=N)N)cc2)cc1.Cl [A, N-(4ʹ-methylphenyl)-4-guanidinomethylbenzamide hydrochloride]
[1]
  Ulcer inhibition rate (%): 90.3%
  Ulcer index (mm): 9.2 ± 3.4 mm

## COc1ccccc1NC(=O)c1ccc(CNC(=N)N)cc1.Cl [Compound D, N-(2ʹ-methoxyphenyl)-4-guanidinomethylbenzamide hydrochloride]
[1]
  Ulcer inhibition rate (%): 74.8%
  Ulcer index (mm): 23.8 ± 14.9 mm
